This is an account of results in patent US8361507B2, “Eprosartan mesylate crystalline particles and a process for preparing pure eprosartan” (Hetero Drugs Limited, priority 2007, dated 2013).

Series [1] is described as follows: Specific surface area by Brunauer-Emmett-Teller (B.E.T.) nitrogen absorption. It counts as physicochemical. Particulars: B.E.T. method, crystalline particles. The source says:
Specific surface area is defined in units of square meters per gram (m^2/g). It is usually measured by nitrogen absorption analysis. In this analysis, nitrogen is absorbed on the surface of the substance. The amount of the absorbed nitrogen (as measured during the absorption or the subsequent desorption process) is related to the surface area via a formula known as the B.E.T. formula.

A short description of series [2]: Particle size distribution by laser diffraction (Sympatec Helos). Type of series: physicochemical. The note with it: crystalline particles. The source says:
As used herein “Particle Size Distribution (P.S.D.)” means the cumulative volume size distribution of equivalent spherical diameters as determined by laser diffraction at 1 bar dispersive pressure in a Sympatec Helos equipment. “Mean particle size distribution, i.e., d(0.5)” correspondingly, means the median of said particle size distribution.

For series [3] the following is noted: crystalline particles disclosed in WO 00/53282; cited from earlier work.
The conditions of series [4]: cited from earlier work.

Where a name gives a salt, the structure may show the parent alone.

Turning to `CCCCc1ncc(/C=C(\Cc2cccs2)C(=O)O)n1Cc1ccc(C(=O)O)cc1` [Example 2, eprosartan mesylate], the “Specific Surface Area” value in series [1] is given as 1.09 m^2/g. Besides, in series [2], the “90 volume-% of the particles (D90)” value is 33.48 μm and the “Mean particle size (D50)” value was 12.13 μm.
Regarding `CCCCc1ncc(/C=C(\Cc2cccs2)C(=O)O)n1Cc1ccc(C(=O)O)cc1` [Example 4, eprosartan mesylate], in series [1], the “Specific Surface Area” value is given as 1.11 m^2/g. Besides, in series [2], the “90 volume-% of the particles (D90)” value was determined as 30.42 μm and the “Mean particle size (D50)” value is 11.23 μm.
In the case of `CCCCc1ncc(/C=C(\Cc2cccs2)C(=O)O)n1Cc1ccc(C(=O)O)cc1` [Reference Example 3, eprosartan mesylate], in series [1], the “Specific Surface Area” value came out at 0.53 m^2/g. In series [2], the “90 volume-% of the particles (D90)” value came to 213.72 μm and the “Mean particle size (D50)” value stood at 70.56 μm.
As for `CCCCc1ncc(/C=C(\Cc2cccs2)C(=O)O)n1Cc1ccc(C(=O)O)cc1` [eprosartan mesylate, (αE)-α-[[2-n-Butyl-1-[(4-carboxyphenyl)methyl]-1H-imidazol-5-yl]methylene-2-thiophenepropanoic acid monomethanesulfonate], the “Specific Surface Area” value in series [1] was “below 0.6 m^2/g”. In series [3], the d90 value result is recorded as “less than 10 micron”. Moreover, the solubility in methanol entry in series [4] (methanol) is “soluble”. The solubility in water entry in series [4] (water) is listed as “practically insoluble”.
